{"source": "patent US10538490B2", "about": "“Benzylaminopyridylcyclopropanecarboxylic acids, pharmaceutical compositions and uses thereof” (Boehringer Ingelheim International GmbH, priority 2016, dated 2020)", "key": {"[1]": {"test": "Chemical stability (degradation kinetics) at pH value of ca. 1.2", "assay_type": "physicochemical", "conditions": "pH value of ca. 1.2 (acetonitrile/0.1 M aqueous HCl 2:3), 37° C., HPLC", "protocol": "Degradation kinetics is used to simulate chemical stability of compounds in the acidic part of the gastro intestinal tract. […] Their application as medical drugs to treat human diseases is therefore less restricted and troublesome.\nThe chemical stability of the compounds of the invention at pH value of ca. 1.2 is determined as follows:\nCompound is dissolved in an HPLC vial either in a mixture of acetonitrile/0.1 M aqueous HCl (2:3; pH ca. 1.2) or in a mixture of acetonitrile/Mcllvaine buffer pH 7.4 (2:3) to get a concentration of approximately 0.25 mg/ml. The vial was then transferred into an HPLC autosampler system and maintained at a temperature of 37° C. A first sample is taken and injected immediately into a standard HPLC system with a UV DAD detector. Further samples are injected after 2, 4, 6, 8 and 10 hours. Amount of degraded compound is measured by determining the recovery rate of compound [%] for each injection using an HPLC standard gradient method. Therefore the peak area of the main peak for the first injection (AUt0) is determined and set as 100%. Peak area of the main peak is determined also for the further injections (AUtn, n=2, 4, 6, 8, 10) and expressed as fraction of […] [%]."}, "[2]": {"test": "Aqueous solubility in buffer versus acetonitrile/water (1/1), LC-UV", "assay_type": "physicochemical", "conditions": "kinetic from dmso stock, buffer pH 2.2, 24 h shaking, 2.5% DMSO, \">\" if more than 90% dissolved", "protocol": "The aqueous solubility of the compounds of the invention is determined by comparing the amount dissolved in buffer to the amount in an acetonitrile/water (1/1) solution. Starting from a 10 mM DMSO stock solution aliquots are diluted with acetonitrile/water (1/1) or buffer, respectively. After 24 h of shaking, the solutions are filtrated and analyzed by LC-UV. The amount dissolved in buffer is compared to the amount in the acetonitrile solution.\nSolubility is usually being measured from 0.001 to 0.125 mg/mL at a DMSO concentration of 2.5%. If more than 90% of the compound is dissolved in buffer, the value is marked with “>”."}, "human GPR40 receptor": {"target": "human GPR40 receptor (Homo sapiens, UniProt O14842)", "sequence (O14842 whole entry)": "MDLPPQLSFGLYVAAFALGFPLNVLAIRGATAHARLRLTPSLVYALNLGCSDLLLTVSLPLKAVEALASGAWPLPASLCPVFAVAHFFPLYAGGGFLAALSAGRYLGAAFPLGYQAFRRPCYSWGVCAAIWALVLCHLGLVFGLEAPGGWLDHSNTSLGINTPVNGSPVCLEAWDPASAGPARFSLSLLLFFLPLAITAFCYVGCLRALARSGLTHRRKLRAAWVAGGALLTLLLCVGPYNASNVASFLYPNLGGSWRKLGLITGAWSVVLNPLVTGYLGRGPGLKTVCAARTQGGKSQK", "test": "IP1 accumulation measurements using the IPOne assay system", "assay_type": "cell-based", "conditions": "1321N1 cells stably expressing human GPR40 receptor, stimulation 1 h at 37° C.", "protocol": "IP1 accumulation measurements using the IPOne assay system—1321N1 cells stably expressing human GPR40 receptor (Euroscreen, Belgium) are seeded 24 h before the assay in white 384-well plates in culture medium containing 10% FCS, 1% Na-Pyruvate and 400 μg/mL G418. IPi is assayed according to the manufacturer's description (Cisbio Bioassays, France). In brief, the assay is started by substitution of the culture medium by stimulation buffer (Hepes 10 mM, CaCl2 1 mM, MgCl2 0.5 mM, KCl 4.2 mM, NaCl 146 mM, glucose 5.5 mM and LiCl 50 mM, pH 7.4). Cells are stimulated for 1 h at 37° C., 5% CO2 by addition of the compounds that are diluted in stimulation buffer containing LiCl. Assays are stopped by adding HTRF-conjugates (IP1-d2 and Anti-IP1 cryptate Tb) and lysis buffer, provided by the manufacturer. After an incubation time of 1 h at room temperature plates are measured using an EnVision™, Perkin Elmer. The obtained fluorescence ratios at 665/615 […] are then used to calculate the pEC50 values using Assay Explorer 3.3 Software (Accelrys, Inc.) by interpolation using an IP1 reference curve and subsequent sigmoidal curve fitting allowing for a variable hill slope."}}}
{"smiles": "Cc1cc(-c2nnn(C)n2)cc(C)c1-c1ccc(F)c(CNc2ccc([C@H]3C[C@@H]3C(=O)O)cn2)c1", "note": "[Example 48]", "values": [{"measurement": "Amount of degradation after 2 h", "setting": "[1]", "result": "<0.5", "unit": "%"}, {"measurement": "solubility at 24 h", "setting": "[2]", "result": 102, "unit": "µg/mL"}, {"measurement": "EC50", "setting": "human GPR40 receptor", "result": 20, "unit": "nM"}]}
